Measured values from patent publication US5082843A, “Pyrazinyl and pyridazinyl ethers” (John Wyeth and Brother Limited, priority 1987, dated 1992).

What was measured:
5-HT3 receptors [1] = target: T1, 5-HT3 receptors (Rattus norvegicus, UniProt P35563); experiment: 5-HT3 receptor antagonism in the isolated vagus nerve of the rat (5-HT induced depolarization); conditions: isolated rat cervical vagus nerve; antagonism of 5-HT induced depolarization; from 5-HT concentration ratios; read-out: apparent pKB (converted)
T1 construct: isolated vagus nerve of the rat; from tissue; host or cells: isolated (cervical) vagus nerve of the rat
T1 sequence (P35563 24-483): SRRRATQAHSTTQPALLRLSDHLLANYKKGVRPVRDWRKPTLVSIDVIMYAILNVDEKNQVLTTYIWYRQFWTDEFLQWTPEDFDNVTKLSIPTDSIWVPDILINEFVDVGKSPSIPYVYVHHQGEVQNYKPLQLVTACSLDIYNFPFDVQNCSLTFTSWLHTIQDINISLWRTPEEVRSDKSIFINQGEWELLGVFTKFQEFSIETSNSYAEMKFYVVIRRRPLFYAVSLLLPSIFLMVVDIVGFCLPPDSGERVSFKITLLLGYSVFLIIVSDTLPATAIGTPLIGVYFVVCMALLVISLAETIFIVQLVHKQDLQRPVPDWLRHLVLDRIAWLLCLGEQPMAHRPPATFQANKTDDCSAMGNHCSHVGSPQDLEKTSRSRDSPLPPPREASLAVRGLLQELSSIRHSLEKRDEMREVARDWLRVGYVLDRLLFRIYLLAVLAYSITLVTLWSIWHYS
Description: The compound of the invention are tested for 5-HT3 receptor antagonism in the isolated vagus nerve of the rat by a method based upon that of Ireland S. J. and Tyers M. B., Brit. J. Pharmacol., 1987, 90, 229-238. The procedure relies upon the ability of 5-HT to induce depolarization of neurones in the cervical vagus nerve by a direct action on 5-HT3 receptors. A concentration-response curve to 5-HT induced depolarization is obtained and the antagonists are added to the bath containing the isolated nerve before repeating the 5-HT concentration-response curve. Antagonist potency is estimated for the 5-HT concentration ratios and expressed as an apparent pKB value (where KB is the antagonist dissociation constant).

5-HT3 receptors [2] = target: T2, 5-HT3 receptors (Oryctolagus cuniculus, UniProt A0A5F9C9J3); experiment: 5-HT3 antagonistic activity in the isolated right atrium of the rabbit heart; conditions: antagonism of 5-HT evoked increase in spontaneous rate of beating, read-out: apparent pKB (converted)
T2 construct: 5-HT3 receptors present on sympathetic nerve terminals in the heart; from tissue; host or cells: isolated right atrium of the rabbit heart (sympathetic nerve terminals)
T2 sequence (A0A5F9C9J3 1-494): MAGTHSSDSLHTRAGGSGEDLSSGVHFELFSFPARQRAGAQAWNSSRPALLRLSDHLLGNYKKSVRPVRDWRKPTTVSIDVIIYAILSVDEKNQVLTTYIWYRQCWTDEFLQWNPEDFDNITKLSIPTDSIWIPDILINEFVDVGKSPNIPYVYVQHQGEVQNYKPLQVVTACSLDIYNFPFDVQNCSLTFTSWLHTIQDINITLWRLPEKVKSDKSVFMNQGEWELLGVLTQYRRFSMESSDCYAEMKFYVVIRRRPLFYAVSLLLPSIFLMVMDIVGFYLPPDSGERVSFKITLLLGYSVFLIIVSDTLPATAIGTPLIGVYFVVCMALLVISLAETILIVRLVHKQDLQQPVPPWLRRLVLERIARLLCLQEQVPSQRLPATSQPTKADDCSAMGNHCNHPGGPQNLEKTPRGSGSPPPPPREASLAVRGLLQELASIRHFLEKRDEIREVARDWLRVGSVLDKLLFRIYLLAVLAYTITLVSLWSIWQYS
Description: The compounds of the invention are also tested for 5-HT3 antagonistic activity in the isolated right atrium of the rabbit heart based upon the method of Fozard J. R., Naunyn-Schmiedeberg's Arch. Pharmacol., 1984, 326, 36-44. This procedure relies upon the ability of 5-HT to stimulate 5-HT3 receptors present on sympathetic nerve terminals in the heart, causing release of noradrenaline which evokes an increase in the spontaneous rate of beating. The antagonist potency is expressed in a similar manner to that of the preceding test method i.e. as an apparent pKB.

Which Kb (5-HT3 receptors [1]) does the source give for `CN1[C@@H]2CC[C@H]1C[C@@H](Oc1ccc3ccccc3n1)C2` [Example 2, Endo-8-methyl-3-(2-quinolyloxy)-8-aza-bicyclo[3.2.1]octane] here?
The Kb was 31.6 nM.

And the Kb (5-HT3 receptors [2])?
The Kb was 2.51 nM.
